# Data reported in the supplement of paper PMC10307832.
# Columns and labels:
# Assay in all cases: relative viability (nuclei count vs DMSO), 5 days (fraction); higher = more cells survive
# [1] = compound: O=C(CCCCCCC(=O)Nc1ccccc1)NO [Vorinostat] + Cc1cc(Nc2cc(N3CCN(C)CC3)nc(Sc3ccc(NC(=O)C4CC4)cc3)n2)n[nH]1 [Tozasertib] (partner 0.1 µM)
# Procedure, shortened: (§1)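 Five library-drug doses in √10 steps were combined with a fixed anchor-drug dose, or a single drug was given alone, by pin tool to lung cancer cell lines in 1536-well plates the day after seeding. Nuclei were stained and counted after 5 days. Relative viability is the nuclei count in treated wells over that in vehicle wells, taken as the median of duplicate plates.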
# [2] = compound: O=C(CCCCCCC(=O)Nc1ccccc1)NO [Vorinostat] + C[C@@H](Oc1cc(-c2cnn(C3CCNCC3)c2)cnc1N)c1c(Cl)ccc(F)c1Cl [Crizotinib] (partner 1 µM)
# Procedure, shortened: as §1
# [3] = compound: O=C(CCCCCCC(=O)Nc1ccccc1)NO [Vorinostat] + CC(=O)c1c(C)c2cnc(Nc3ccc(N4CCNCC4)cn3)nc2n(C2CCCC2)c1=O [Palbociclib] (partner 0.5 µM)
# Procedure, shortened: as §1
# [4] = compound: O=C(CCCCCCC(=O)Nc1ccccc1)NO [Vorinostat] + NC(=O)Nc1cc(-c2cccc(F)c2)sc1C(=O)N[C@H]1CCCNC1 [AZD7762] (partner 0.2 µM)
# Procedure, shortened: as §1
# [5] = compound: O=C(CCCCCCC(=O)Nc1ccccc1)NO [Vorinostat] + Nc1nc2[nH]cc(CCc3ccc(C(=O)N[C@@H](CCC(=O)O)C(=O)O)cc3)c2c(=O)[nH]1 [Pemetrexed] (partner 0.2 µM)
# Procedure, shortened: as §1
Cell Line,relative viability ([1]; first compound 0.253 µM),relative viability ([1]; first compound 0.8 µM),relative viability ([1]; first compound 2.53 µM),relative viability ([1]; first compound 8 µM),relative viability ([2]; first compound 0.253 µM),relative viability ([2]; first compound 0.8 µM),relative viability ([2]; first compound 2.53 µM),relative viability ([2]; first compound 8 µM),relative viability ([3]; first compound 0.253 µM),relative viability ([3]; first compound 0.8 µM),relative viability ([3]; first compound 2.53 µM),relative viability ([3]; first compound 8 µM),relative viability ([4]; first compound 0.253 µM),relative viability ([4]; first compound 0.8 µM),relative viability ([4]; first compound 2.53 µM),relative viability ([4]; first compound 8 µM),relative viability ([5]; first compound 0.253 µM),relative viability ([5]; first compound 0.8 µM),relative viability ([5]; first compound 2.53 µM),relative viability ([5]; first compound 8 µM)
NCI-H1355,0.529,0.315,0.188,0.129,1.19,0.963,0.398,0.138,0.411,0.356,0.214,0.138,0.892,0.595,0.394,0.15,1.09,1.01,0.536,0.246
EPLC-272H,0.289,0.249,0.189,0.149,0.875,0.774,0.346,0.178,0.289,0.294,0.217,0.171,0.135,0.171,0.069,0.138,0.367,0.381,0.212,0.159
A-427,0.182,0.168,0.134,0.0919,0.954,0.847,0.274,0.096,0.522,0.496,0.331,0.227,0.67,0.459,0.239,0.156,1.02,0.925,0.433,0.196
BEN,0.463,0.441,0.248,0.0886,1.06,0.553,0.147,0.0454,0.433,0.455,0.301,0.155,0.645,0.661,0.439,0.125,0.712,0.572,0.474,0.145
LCLC-103H,0.377,0.27,0.162,0.127,1.12,1.13,0.737,0.254,0.494,0.424,0.368,0.302,0.696,0.672,0.45,0.238,0.471,0.425,0.452,0.32
EKVX,0.39,0.275,0.194,0.11,0.958,0.891,0.428,0.152,0.401,0.398,0.199,0.125,0.838,0.489,0.199,0.136,0.384,0.413,0.386,0.146
LU99A,0.299,0.259,0.208,0.213,0.523,0.44,0.236,0.146,0.389,0.375,0.272,0.104,0.279,0.198,0.15,0.0946,0.14,0.182,0.162,0.112
NCI-H460,0.593,0.0486,0.0314,0.0259,1.05,0.336,0.0241,0.0093,0.146,0.0944,0.0356,0.011,0.348,0.446,0.0499,0.0349,0.0729,0.064,0.0548,0.0231
